Read-outs that look alike come from different tables or passages of the source.
SMILES: Cc1cccc([C@H](C)c2cnc[nH]2)c1C [dexmedetomidine]
- EEG spectral dynamics / sleep state induced (high-dose: about 0.9 to about 1.1 mcg/kg loading, about 0.80 to about 0.9 mcg/kg/hr maintenance, FIGS. 4A-4B): only slow-waves being induced
- EEG spectral dynamics / sleep state induced (low-dose: about 0.9 to about 1.1 mcg/kg loading, about 0.60 to about 0.7 mcg/kg/hr maintenance, FIGS. 3A-3B): spindles and slow-waves that can closely resemble stage N2 NREM sleep

Reference: US20170274174A1, “SYSTEM AND METHOD FOR ADMINISTERING, MONITORING AND CONTROLLING BIOMIMETIC SLEEP” (THE GENERAL HOSPITAL CORPORATION, priority 2014, published 2017)
